Data: patent US20060025390A1, “Treatment of hormone allergy and related symptoms and disorders” (priority 2004, published 2006)

Key:
[1] = system: serum IgG anti-17-α-hydroxyprogesterone antibodies; assay: ELISA binding of IgG 17-α-hydroxyprogesterone antibodies to different hormones in solid phase; parameters: species or system human; conditions: for IgG anti-17-α-hydroxyprogesterone binding: in comparison to 100% binding to 17-α-hydroxyprogesterone, over three sera; for IgG binding (optical density): hormone in solid phase, 405 nm; for IgG % reaction: relative to 17-α-hydroxyprogesterone = 100
Method: (§1) The ELISA inhibition method was used to determine specificity and cross-reactivity between different hormones and to ensure the degree of human IgG, IgM and IgE estrogen or progesterone binding to estrogen or progesterone in solid phase. […] 100 μl of sera from three different patients with high IgG, IgM or IgE antibodies against 17-α-hydroxyprogesterone was added to all wells. After shaking and incubation for 1 hr at room temperature, addition of enzyme labeled anti-human IgG, IgM or IgE, repeat of incubation, washing, and addition of substrate, color development was measured at 405 nm. Results were calculated as percentage of anti-17-α-hydroxyprogesterone binding to 17-α-hydroxyprogesterone and other hormones. Also, anti-estrogen binding to estrogen and other hormones in solid phase by progesterone in liquid phase was performed and calculated in a similar manner.
(§2) Human sera containing 17-α-hydroxyprogesterone IgG-, IgM- and IgE-binding antibodies were reacted against progesterone, estrogen, hydrocortisone and cholesterol. In comparison to 100% binding of anti-17-α-hydroxyprogesterone-binding to 17-α-hydroxyprogesterone, the IgG anti-17-α-hydroxyprogesterone-binding to progesterone, estrogen, hydrocortisone and cholesterol was 69-77%, 25-30%, 39-53%, and less than 10% respectively (Table 4). The % binding of serum IgM and IgE anti-17-α-hydroxyprogesterone to 17-1-hydroxyprogesterone, progesterone, estrogen, hydrocortisone and cholesterol was similar to the binding of IgG. This binding of anti-17-α-hydroxyprogesterone to progesterone was the highest, followed by hydrocortisone, then estrogen, to almost no binding with cholesterol. Similar to this, human sera with IgG, IgM and IgE binding antibodies against estrogen were reacted with progesterone, 17-α-hydroxyprogesterone, hydrocortisone and cholesterol, in the presence of estrogen.

[2] = system: serum IgM anti-17-α-hydroxyprogesterone antibodies; assay: ELISA binding of IgM 17-α-hydroxyprogesterone antibodies to different hormones in solid phase; parameters: species or system human; conditions: for IgM binding (optical density): hormone in solid phase, 405 nm; for IgM % reaction: relative to 17-α-hydroxyprogesterone = 100
Method: as §1, §2

[3] = system: serum IgE anti-17-α-hydroxyprogesterone antibodies; assay: ELISA binding of IgE 17-α-hydroxyprogesterone antibodies to different hormones in solid phase; parameters: species or system human; conditions: for IgE binding (optical density): hormone in solid phase, 405 nm; for IgE % reaction: relative to 17-α-hydroxyprogesterone = 100
Method: as §1, §2

[4] = system: serum IgG anti-estrogen antibodies; assay: ELISA binding of IgG estrogen antibodies to different hormones in solid phase; parameters: species or system human; conditions: for IgG binding (optical density): hormone in solid phase, 405 nm; for IgG % reaction: relative to estrogen = 100; for IgG anti-estrogen binding: relative to estrogen, over three sera
Method: as §1, §2

[5] = system: serum IgM anti-estrogen antibodies; assay: ELISA binding of IgM estrogen antibodies to different hormones in solid phase; parameters: species or system human; conditions: for IgM binding (optical density): hormone in solid phase, 405 nm; for IgM % reaction: relative to estrogen = 100; for IgM anti-estrogen binding: relative to estrogen, over three sera
Method: as §1, §2

[6] = system: serum IgE anti-estrogen antibodies; assay: ELISA binding of IgE estrogen antibodies to different hormones in solid phase; parameters: species or system human; conditions: for IgE binding (optical density): hormone in solid phase, 405 nm; for IgE % reaction: relative to estrogen = 100; for IgE anti-estrogen binding: relative to estrogen, over three sera
Method: as §1, §2

[7] = system: serum IgG anti-estrogen antibodies; assay: Competition ELISA: absorption of serum IgG anti-estrogen with specific and non-specific antigens; assay type: binding, human; conditions: for inhibition of anti-estrogen binding to estrogen (IgG): antigen in liquid phase, over the three sera; for IgG level after absorption: absorption with 250 μg/mL, optical density 405 nm
Method: (§3) For this, microtiter plates were coated with hormones and blocked by the addition of 2% BSA in PBST. 100 μl of serum diluent buffer was added to all wells. […] After 60 minutes incubation 100 μl serum anti-estrogen or anti-progesterone was added to all wells. […] Results were calculated as percentage of inhibition in antigen-antibody reaction.
(§4) To examine whether antibodies to estrogen or progesterone are specific or cross-reactive, we performed competition ELISA by adding specific and non-specific antigens in liquid phase and examined prevention of serum antibody binding to the antigen in solid phase. […] For IgE anti-estrogen, this inhibition by estrogen-BSA was between 54-62%, and with progesterone-BSA, from 37-43%. […] This cross-reaction between estrogen and progesterone antibodies may be due to structural similarities between these two hormones.

[8] = system: serum IgE anti-estrogen antibodies; assay: Competition ELISA: absorption of serum IgE anti-estrogen with specific and non-specific antigens; assay type: binding, human; conditions: for inhibition of IgE anti-estrogen binding: antigen in liquid phase, over the three sera; for IgE level after absorption: absorption with 250 μg/mL, optical density 405 nm
Method: as §3, §4

[9] = serum sample 1, before absorption 1.83
[10] = serum sample 2, before absorption 1.25
[11] = serum sample 3, before absorption 0.76
[12] = serum sample 1, before absorption 2.15
[13] = serum sample 2, before absorption 1.66
[14] = serum sample 3, before absorption 1.34

IgG anti-17-α-hydroxyprogesterone binding [1] | IgG binding (optical density) ([1]; sample 1) | IgG % reaction ([1]; sample 1) [%] | IgG binding (optical density) ([1]; sample 2) | IgG binding (optical density) ([1]; sample 3) | IgM binding (optical density) ([2]; sample 1) | IgM binding (optical density) ([2]; sample 2) | IgM binding (optical density) ([2]; sample 3) | IgE binding (optical density) ([3]; sample 1) | IgE binding (optical density) ([3]; sample 2) | IgE % reaction ([3]; sample 2) [%] | IgE binding (optical density) ([3]; sample 3) | IgG binding (optical density) ([4]; sample 1) | IgG binding (optical density) ([4]; sample 2) | IgG binding (optical density) ([4]; sample 3) | IgM binding (optical density) ([5]; sample 1) | IgM binding (optical density) ([5]; sample 2) | IgM % reaction ([5]; sample 2) [%] | IgM binding (optical density) ([5]; sample 3) | IgM % reaction ([5]; sample 3) [%] | Molecule | further results
100% | 1.6 | −100 | 0.95 | 0.68 | 1.3 | 1.2 | 0.92 | 1.45 | 2.4 | −100 | 1.1 | 0.42 | 0.75 | 0.52 | 0.34 | 0.88 | −42 | 0.59 | −45 | CC(=O)[C@@]1(O)CC[C@H]2[C@@H]3CCC4=CC(=O)CC[C@]4(C)[C@H]3CC[C@@]21C [HP, 17-α-hydroxy-progesterone] | IgG % reaction ([1]; sample 2): −100%; IgG % reaction ([1]; sample 3): −100%; IgM % reaction ([2]; sample 1): −100%; IgM % reaction ([2]; sample 2): −100%; IgM % reaction ([2]; sample 3): −100%; IgE % reaction ([3]; sample 1): −100%; IgE % reaction ([3]; sample 3): −100%; IgG % reaction ([4]; sample 1): −35%; IgG % reaction ([4]; sample 2): −42%; IgG % reaction ([4]; sample 3): −57%; IgM % reaction ([5]; sample 1): −38%; IgE binding (optical density) ([6]; sample 1): 0.22; IgE % reaction ([6]; sample 1): −28%; IgE binding (optical density) ([6]; sample 2): 0.65; IgE % reaction ([6]; sample 2): −43%; IgE binding (optical density) ([6]; sample 3): 0.73; IgE % reaction ([6]; sample 3): −46%
 |  |  |  |  |  |  |  |  |  |  |  |  |  |  |  |  |  |  |  | bovine serum albumin [BSA] | inhibition of anti-estrogen binding to estrogen (IgG) [7]: did not significantly absorb; IgG level after absorption [7, 9]: 1.79; IgG level after absorption [7, 10]: 1.13; IgG level after absorption [7, 11]: 0.81; inhibition of IgE anti-estrogen binding [8]: did not significantly absorb; IgE level after absorption [8, 12]: 2.24; IgE level after absorption [8, 13]: 1.53; IgE level after absorption [8, 14]: 1.26
39-53% | 0.69 | −43 | 0.37 | 0.36 | 0.47 | 0.5 | 0.51 | 0.58 | 1.2 | −50 | 0.68 | 0.15 | 0.31 | 0.18 | 0.16 | 0.44 | −21 | 0.23 | −18 | C[C@]12CCC(=O)C=C1CC[C@@H]1[C@@H]2[C@@H](O)C[C@@]2(C)[C@H]1CC[C@]2(O)C(=O)CO [HC, Hydrocortisone] | IgG % reaction ([1]; sample 2): −39%; IgG % reaction ([1]; sample 3): −53%; IgM % reaction ([2]; sample 1): −36%; IgM % reaction ([2]; sample 2): −39%; IgM % reaction ([2]; sample 3): −55%; IgE % reaction ([3]; sample 1): −40%; IgE % reaction ([3]; sample 3): −39%; IgG anti-estrogen binding [4]: not significant; IgG % reaction ([4]; sample 2): −17%; IgM anti-estrogen binding [5]: not significant; IgE anti-estrogen binding [6]: not significant; IgE binding (optical density) ([6]; sample 1): 0.17; IgE binding (optical density) ([6]; sample 2): 0.29; IgE % reaction ([6]; sample 2): −19%; IgE binding (optical density) ([6]; sample 3): 0.25; IgE % reaction ([6]; sample 3): −16%
less than 10% | 0.21 | −13 | 0.12 | 0.17 | 0.18 | 0.19 | 0.15 | 0.2 | 0.23 | −10 | 0.18 | 0.12 | 0.19 | 0.15 | 0.13 | 0.25 | −12 | 0.24 | −18 | CC(C)CCC[C@@H](C)[C@H]1CC[C@H]2[C@@H]3CC=C4C[C@@H](O)CC[C@]4(C)[C@H]3CC[C@]12C [C, Cholesterol] | IgG anti-estrogen binding [4]: not significant; IgM anti-estrogen binding [5]: not significant; IgE anti-estrogen binding [6]: not significant; IgE binding (optical density) ([6]; sample 1): 0.15; IgE binding (optical density) ([6]; sample 2): 0.21; IgE % reaction ([6]; sample 2): −14%; IgE binding (optical density) ([6]; sample 3): 0.28; IgE % reaction ([6]; sample 3): −17%
 |  |  |  |  |  |  |  |  |  |  |  |  |  |  |  |  |  |  |  | myelin basic protein (protein, UniProt P02686 1-304, looked up) Myelin basic protein: MGNHAGKRELNAEKASTNSETNRGESEKKRNLGELSRTTSEDNEVFGEADANQNNGTSSQDTAVTDSKRTADPKNAWQDAHPADPGSRPHLIRLFSRDAPGREDNTFKDRPSESDELQTIQEDSAATSESLDVMASQKRPSQRHGSKYLATASTMDHARHGFLPRHRDTGILDSIGRFFGGDRGAPKRGSGKDSHHPARTAHYGSLPQKSHGRTQDENPVVHFFKNIVTPRTPPPSQGKGRGLSLSRFSWGAEGQRPGFGYGGRASDYKSAHKGFKGVDAQGTLSKIFKLGGRDSRSGSPMARR | inhibition of anti-estrogen binding to estrogen (IgG) [7]: did not significantly absorb; IgG level after absorption [7, 9]: 1.67; IgG level after absorption [7, 10]: 1.13; IgG level after absorption [7, 11]: 0.68; inhibition of IgE anti-estrogen binding [8]: did not significantly absorb; IgE level after absorption [8, 12]: 2.05; IgE level after absorption [8, 13]: 1.73; IgE level after absorption [8, 14]: 1.11
